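Exposure lasted 48 hours, with cells grown in 96-well plates and compounds tested at five concentrations. GI50 is the concentration that inhibits growth by half. The concentration for full growth arrest is given as TGI.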
Assays:
Assay in all cases: NCI-60 cell line screen, 48 h; in the data active means GI50 below about 0.43 µM; inactive means the rest
786-0 renal = test system: 786-0 renal
A498 renal = test system: A498 renal
A549 NSCLC = test system: A549 NSCLC
ACHN renal = test system: ACHN renal
BT-549 breast = test system: BT-549 breast
CAKI-1 renal = test system: CAKI-1 renal
CCRF-CEM leukemia = test system: CCRF-CEM leukemia
COLO 205 colon = test system: COLO 205 colon
DU-145 prostate = test system: DU-145 prostate
EKVX NSCLC = test system: EKVX NSCLC
HCC-2998 colon = test system: HCC-2998 colon
HCT-116 colon = test system: HCT-116 colon
HCT-15 colon = test system: HCT-15 colon
HL-60(TB) leukemia = test system: HL-60(TB) leukemia
HOP-62 NSCLC = test system: HOP-62 NSCLC
HOP-92 NSCLC = test system: HOP-92 NSCLC
HS 578T breast = test system: HS 578T breast
HT29 colon = test system: HT29 colon
IGROV1 ovarian = test system: IGROV1 ovarian
K-562 leukemia = test system: K-562 leukemia
KM12 colon = test system: KM12 colon
LOX IMVI melanoma = test system: LOX IMVI melanoma
M14 melanoma = test system: M14 melanoma
MALME-3M melanoma = test system: MALME-3M melanoma
MCF7 breast = test system: MCF7 breast
MDA-MB-231 breast = test system: MDA-MB-231 breast
MDA-MB-435 = test system: MDA-MB-435
MDA-MB-468 breast = test system: MDA-MB-468 breast
MOLT-4 leukemia = test system: MOLT-4 leukemia
NCI-H226 lung = test system: NCI-H226 lung
NCI-H23 lung = test system: NCI-H23 lung
NCI-H460 lung = test system: NCI-H460 lung
NCI-H522 lung = test system: NCI-H522 lung
OVCAR-3 ovarian = test system: OVCAR-3 ovarian
OVCAR-4 ovarian = test system: OVCAR-4 ovarian
OVCAR-5 ovarian = test system: OVCAR-5 ovarian
OVCAR-8 ovarian = test system: OVCAR-8 ovarian
PC-3 prostate = test system: PC-3 prostate
RPMI-8226 leukemia = test system: RPMI-8226 leukemia
RXF 393 renal = test system: RXF 393 renal
SF-268 CNS = test system: SF-268 CNS
SF-295 CNS = test system: SF-295 CNS
SF-539 CNS = test system: SF-539 CNS
SK-MEL-2 melanoma = test system: SK-MEL-2 melanoma
SK-MEL-28 melanoma = test system: SK-MEL-28 melanoma
SK-MEL-5 melanoma = test system: SK-MEL-5 melanoma
SK-OV-3 ovarian = test system: SK-OV-3 ovarian
SN12C renal = test system: SN12C renal
SNB-19 CNS = test system: SNB-19 CNS
SNB-75 CNS = test system: SNB-75 CNS
SR leukemia = test system: SR leukemia
SW-620 colon = test system: SW-620 colon
T-47D breast = test system: T-47D breast
TK-10 renal = test system: TK-10 renal
U251 CNS = test system: U251 CNS
UACC-257 melanoma = test system: UACC-257 melanoma
UACC-62 melanoma = test system: UACC-62 melanoma
UO-31 renal = test system: UO-31 renal

O=C(O)c1ccc(-c2ccc(/C=N/NC(=O)c3[nH]c4ccc(Br)cc4c3-c3ccccc3)o2)cc1
55.8 µM: TGI (SF-295 CNS)
79.6 µM: TGI (MDA-MB-468 breast)
36.7 µM: TGI (SF-539 CNS)
83.8 µM: TGI (COLO 205 colon)
> 100 µM: TGI (786-0 renal) | TGI (A549 NSCLC) | TGI (ACHN renal) | TGI (CCRF-CEM leukemia) | TGI (DU-145 prostate) | TGI (EKVX NSCLC) | TGI (HCT-116 colon) | TGI (HCT-15 colon) | TGI (HOP-62 NSCLC) | TGI (LOX IMVI melanoma) | TGI (M14 melanoma) | TGI (MALME-3M melanoma) | TGI (MCF7 breast) | TGI (MDA-MB-231 breast) | TGI (NCI-H226 lung) | TGI (NCI-H23 lung) | TGI (OVCAR-4 ovarian) | TGI (OVCAR-5 ovarian) | TGI (PC-3 prostate) | TGI (RPMI-8226 leukemia) | TGI (SF-268 CNS) | TGI (SK-MEL-28 melanoma) | TGI (SNB-19 CNS) | TGI (SW-620 colon) | TGI (T-47D breast) | TGI (TK-10 renal) | TGI (UACC-257 melanoma) | TGI (UO-31 renal)
25.2 µM: TGI (UACC-62 melanoma)
66.2 µM: TGI (KM12 colon)
inactive: GI50 (786-0 renal) 24.2 µM | GI50 (A498 renal) 23.6 µM | GI50 (A549 NSCLC) 32.3 µM | GI50 (ACHN renal) 29.3 µM | GI50 (BT-549 breast) 20.1 µM | GI50 (CAKI-1 renal) 22 µM | GI50 (CCRF-CEM leukemia) 19.3 µM | GI50 (COLO 205 colon) 26.4 µM | GI50 (DU-145 prostate) 36.4 µM | GI50 (EKVX NSCLC) 28.8 µM | GI50 (HCC-2998 colon) 16.1 µM | GI50 (HCT-116 colon) 27.7 µM | GI50 (HCT-15 colon) 18.6 µM | GI50 (HL-60(TB) leukemia) 12.4 µM | GI50 (HOP-62 NSCLC) 29.5 µM | GI50 (HOP-92 NSCLC) 10.6 µM | GI50 (HS 578T breast) 3.87 µM | GI50 (HT29 colon) 21.9 µM | GI50 (IGROV1 ovarian) 25.3 µM | GI50 (K-562 leukemia) 20.8 µM | GI50 (KM12 colon) 22.4 µM | GI50 (LOX IMVI melanoma) 20 µM | GI50 (M14 melanoma) 29.8 µM | GI50 (MALME-3M melanoma) 19.1 µM | GI50 (MCF7 breast) 28.3 µM | GI50 (MDA-MB-231 breast) 27.9 µM | GI50 (MDA-MB-435) 12.5 µM | GI50 (MDA-MB-468 breast) 19.5 µM | GI50 (MOLT-4 leukemia) 20.3 µM | GI50 (NCI-H226 lung) 34.5 µM | GI50 (NCI-H23 lung) 34.1 µM | GI50 (NCI-H460 lung) 21.3 µM | GI50 (NCI-H522 lung) 7.64 µM | GI50 (OVCAR-3 ovarian) 12.2 µM | GI50 (OVCAR-4 ovarian) 21.1 µM | GI50 (OVCAR-5 ovarian) 36.5 µM | GI50 (OVCAR-8 ovarian) 20.7 µM | GI50 (PC-3 prostate) 25.1 µM | GI50 (RPMI-8226 leukemia) 25.9 µM | GI50 (RXF 393 renal) 11.3 µM | GI50 (SF-268 CNS) 20.8 µM | GI50 (SF-295 CNS) 20.4 µM | GI50 (SF-539 CNS) 14.7 µM | GI50 (SK-MEL-2 melanoma) 14.6 µM | GI50 (SK-MEL-28 melanoma) 15.8 µM | GI50 (SK-MEL-5 melanoma) 15.7 µM | GI50 (SK-OV-3 ovarian) 28.3 µM | GI50 (SN12C renal) 24.8 µM | GI50 (SNB-19 CNS) 21.6 µM | GI50 (SNB-75 CNS) 4.02 µM | GI50 (SR leukemia) 11.8 µM | GI50 (SW-620 colon) 25.4 µM | GI50 (T-47D breast) 30.9 µM | GI50 (TK-10 renal) 38.7 µM | GI50 (U251 CNS) 20 µM | GI50 (UACC-257 melanoma) 24.5 µM | GI50 (UACC-62 melanoma) 4.98 µM | GI50 (UO-31 renal) 25 µM
43.1 µM: TGI (OVCAR-3 ovarian)
80.8 µM: TGI (SN12C renal)
33.3 µM: TGI (SNB-75 CNS)
36.1 µM: TGI (HL-60(TB) leukemia)
33 µM: TGI (SK-MEL-5 melanoma)
96.6 µM: TGI (MOLT-4 leukemia)
83.1 µM: TGI (U251 CNS)
98.4 µM: TGI (K-562 leukemia)
51.7 µM: TGI (BT-549 breast)
98.7 µM: TGI (CAKI-1 renal)
76.7 µM: TGI (SK-OV-3 ovarian)
30.7 µM: TGI (HCC-2998 colon)
86.1 µM: TGI (IGROV1 ovarian)
63.4 µM: TGI (OVCAR-8 ovarian)
95.1 µM: TGI (RXF 393 renal)
34.4 µM: TGI (NCI-H522 lung)
54.7 µM: TGI (HT29 colon)
41.1 µM: TGI (MDA-MB-435)
45.6 µM: TGI (SR leukemia)
85.7 µM: TGI (A498 renal)
72.8 µM: TGI (NCI-H460 lung)
37.3 µM: TGI (SK-MEL-2 melanoma)
72 µM: TGI (HS 578T breast)
42.2 µM: TGI (HOP-92 NSCLC)

— PubChem BioAssay (NCI)
